Data on nine compounds can be found in article PMC3108608 (Frontiers in Pharmacology, 2011).

Assay [1] concerns carrageenan-induced mouse paw edema. Description: Carrageenan-induced paw edema in mice. The class given is in vivo. The following applies: for ED50 paw edema formation: i.p., areas under the curves 2-6 h. Here is the method:
Mice were divided into groups (n = 10 for each group) and lightly anesthetized with enflurane 4% mixed with O2, 0.5 l min^−1, N2O 0.5 l min^−1. Each group of animals received subplantar administration of saline (0.05 ml) or of λ-carrageenan type IV 1% (w v^−1, 0.05 ml) in saline. The paw was marked in order to immerge it always at the same extent in the measurement chamber. The volume was measured by using a hydroplethismometer, specially modified for small volumes (Ugo Basile, Milan, Italy), immediately before subplantar injection and 2, 4, and 6 h thereafter (Posadas et al., [2004]). The assessment of paw volume was performed always in double blind and by the same operator. The increase in paw volume was calculated by subtracting the initial paw volume (basal) to the paw volume measured at each time point.
(Carrageenan injected into the paw causes an acute inflammation.)

Assay [2] deals with 5-lipoxygenase (5-LO). Further details: method as in Albert et al., 2002; Feisst et al., 2009. Conditions: neutrophils; ref Albert et al., 2002; Feisst et al., 2009; read-out: IC50 of leukotriene biosynthesis; cited from earlier work.
In assay [3] the test system is A549 cells. Description: cells. The following applies: Homo sapiens, A549, 24 h, read-out: EC50 of reduction of cell viability.
The subject of assay [4] is COX-1. Also noted: method as in Albert et al., 2002; Feisst et al., 2009. Conditions: human platelets; ref Albert et al., 2002; Feisst et al., 2009; cited from earlier work.
In assay [5] the test system is A549 lung carcinoma cells. Description: Apoptosis of A549 cells monitored by cleavage of PARP. The assay is classed as cell-based. Conditions: Homo sapiens, A549, 24 h. Here is the method: (§1) Cells (4 × 10^6 cells) were resuspended in 50 μl PBS buffer pH 7.2, mixed with the same volume of 2 × SDS/PAGE sample loading buffer (20 mM Tris–HCl, pH 8, 2 mM EDTA, 5% (m v^−1) SDS, and 10% (v v^−1) β-mercaptoethanol), and boiled for 5 min at 95°C. Aliquots (20 μl) corresponding to equivalents of 0.8 × 10^6 cells were mixed with 4 μl glycerol/0.1% bromophenol blue (1:1, v v^−1), and proteins were separated by SDS-PAGE. After electroblotting to nitrocellulose membrane (GE Healthcare, Munich, Germany) and blocking with 5% BSA for 1 h at room temperature, membranes were washed and incubated with primary antibodies overnight at 4°C. The membranes were washed and incubated with a 1:1000 dilution of alkaline phosphatase-conjugated immunoglobulin G for 3 h at room temperature. After washing, proteins were visualized with nitro blue tetrazolium and 5-bromo-4-chloro-3-indolylphosphate.
(§2) Cells were harvested after 24 h, total cell lysates were prepared and analyzed for the induction of COX-2 (72 kDa), mPGES-1 (16 kDa) and cleaved PARP (89 kDa) using SDS-PAGE and Western blotting. β-Actin (45 kDa) was used as loading control. Data are representatives of two to three independent experiments.

Assay [6] relates to carrageenan-induced pleurisy. The assay can be described thus: Carrageenan-induced pleurisy in rats. The assay is classed as in vivo, rat. The following applies: 4 h after carrageenan; for PGE2 in exudate: vehicle 1.81 ± 0.16; for Inflammatory cells: vehicle 103.0 ± 15.4.
Assay [7] concerns COX-2. Also noted: method as in Albert et al., 2002; Feisst et al., 2009. Conditions: monocytic Mono Mac 6 cells; ref Albert et al., 2002; Feisst et al., 2009; read-out: COX-2 activity (6-keto PGF1α synthesis), not affected up to; cited from earlier work.
For assay [8], the system named is COX-2 expression. The assay can be described thus: Induction of COX-2 in IL-1β-stimulated A549 cells (Western blot). The class given is cell-based. The following applies: Homo sapiens, 24 h, read-out: EC50 of inhibition of COX-2 induction. Here is the method: as §1, §2
(In general: In western blotting, separated proteins are transferred to a membrane and probed.)

For assay [9], the system named is mPGES-1 expression. Description: Induction of mPGES-1 in IL-1β-stimulated A549 cells (Western blot). The class given is cell-based. The following applies: Homo sapiens, 24 h, read-out: EC50 of inhibition of mPGES-1 induction. Here is the method: as §1, §2
Assay [10] has as its system PGE2 formation in LPS-stimulated human whole blood. The assay can be described thus: PGE2 formation in LPS-stimulated human whole blood. The assay is classed as cell-based. Conditions: controls: MK-886 30 μM, MD-52 6 μM, indomethacin 50 μM, celecoxib 20 μM; LPS 5 h.
The test system of assay [11] is TXB2 formation in LPS-stimulated human whole blood. Description: TXB2 formation in LPS-stimulated human whole blood. The class given is cell-based. Conditions: MK-886 30 μM, MD-52 6 μM; LPS 5 h.
Assay [12] deals with 6-keto PGF1α formation in LPS-stimulated human whole blood. The assay can be described thus: 6-keto PGF1α formation in LPS-stimulated human whole blood. The class given is cell-based. The following applies: MK-886 30 μM, MD-52 6 μM; LPS 5 h.
Assay [13] addresses T1, mPGES-1 (Homo sapiens, UniProt O14684).
T1 construct: microsomal preparations of IL-1β-stimulated A549 cells, a rich source of mPGES-1; endogenous in cells; host or cells: A549 cells, IL-1β-stimulated, microsomal fraction
T1 sequence (O14684 1-152): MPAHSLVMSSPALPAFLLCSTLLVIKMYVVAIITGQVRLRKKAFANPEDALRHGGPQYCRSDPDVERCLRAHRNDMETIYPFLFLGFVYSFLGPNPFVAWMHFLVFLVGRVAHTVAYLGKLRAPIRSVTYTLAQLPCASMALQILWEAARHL
The assay can be described thus: PGE2 synthase activity in microsomes of IL-1β-stimulated A549 cells. The class given is biochemical. The following applies: for IC50: 15 min pre-incubation at 4°C, 20 μM PGH2, 1 min, read-out: IC50 of PGE2 formation (mPGES-1 activity).

Assay [14] deals with 12-HHT formation (mainly derived from platelet COX-1) in human whole blood. The assay can be described thus: 12-HHT formation in human whole blood (A23187 plus AA). The class given is cell-based. Conditions: indomethacin 20 μM, aspirin 30 μM.
The mark [15] stands for this setting: Hyp 4 mg kg^−1 i.p., indomethacin 5 mg kg^−1.
[16] abbreviates: i.p. 30 min before, Hyperforin 4 mg kg^−1, Indomethacin 5 mg kg^−1.

SMILES strings stand for the structures.

Take `CC(C)=CCCC1(C)C(CC=C(C)C)CC2(CC=C(C)C)C(=O)C1(C(=O)C(C)C)C(=O)C(CC=C(C)C)=C2O` (centres unmarked) [Hyp, Hyperforin]: the results for the “inhibition of edema formation from areas under the curves (2-6 h)” value in assay [1] (0.25 mg kg^−1 i.p.), in assay [1] (1 mg kg^−1 i.p.) and in assay [1] (4 mg kg^−1 i.p.) were 27 % of control, 49 % of control and 76 % of control, respectively. Besides, the “reduction of peak paw edema response at 4 h” value in assay [1] (0.25 mg kg^−1 i.p. 30 min before carrageenan) stood at 35%; in assay [1] (1 mg kg^−1 i.p. 30 min before carrageenan), 63%; in [1] (4 mg kg^−1 i.p. 30 min before carrageenan) it was 78%. Also, the “ED50 paw edema formation” value in assay [1] was found to be 1 mg/kg. Also, the values for the IC50 in assay [2], in assay [4] and in assay [7] were 1000 to 2000 nM, 3000 nM and greater than 30000 nM, respectively. The EC50 – broadly, the concentration that produces a half-maximal response – in assay [3] is roughly 3000 nM; in assay [5], roughly 3000 nM; in [8], 1000 to 3000 nM; in assay [9], 1000 to 3000 nM. Further, in assay [6] (setting [15]), the “attenuation of exudate formation” value is 64%. In addition, the PGE2 in exudate in [6] (setting [16]) amounted to 0.97 ± 0.15 ng/rat. Further, in assay [6] (setting [16]), the Inflammatory cells is reported as 51.3 ± 7.2 ×10^6.

`Clc1ccccc1-c1nc2c3ccccc3c3ccccc3c2[nH]1` [MD-52, 2-(2-chlorophenyl)-1H-phenanthro[9,10-d]-imidazole]: the “effect on PGE2 formation” value in assay [10] is reported as “only partially inhibited”. For the same compound, the “effect on TXB2 formation” value in [11] is listed as “failed to suppress”. In addition, the “effect on 6-keto PGF1α formation” value in [12] is reported as “failed to suppress”.

`CC(C)c1ccc2c(c1)c(SC(C)(C)C)c(CC(C)(C)C(=O)O)n2Cc1ccc(Cl)cc1` [MK-886]: the “effect on PGE2 formation” value in [10] is recorded as “only partially inhibited”. Further, the “effect on TXB2 formation” value in [11] was “failed to suppress”. Further, the “effect on 6-keto PGF1α formation” value in [12] is listed as “failed to suppress”.

For `Cc1c(O)cc(O)c(C(=O)C(C)C)c1O` [acylphloroglucinol core], the IC50 in [13] was greater than 10000 nM.

As for `CC(=O)Oc1ccccc1C(=O)O` [aspirin], the “effect on 12-HHT formation” value in [14] is listed as “almost completely blocked”.

For `Cc1ccc(-c2cc(C(F)(F)F)nn2-c2ccc(S(N)(=O)=O)cc2)cc1` [celecoxib], the “effect on PGE2 formation” value in [10] is given as “effectively reduced”.

Regarding `CC(C)=CCC1C(=O)C(C(=O)CC(C)C)=C(O)C(O)(CC=C(C)C)C1=O` (centres unmarked) [humulone], the IC50 in assay [13] was greater than 10000 nM.

In the case of `COc1ccc2c(c1)c(CC(=O)O)c(C)n2C(=O)c1ccc(Cl)cc1` [indomethacin], the “effect on PGE2 formation” value in [10] was “effectively reduced”. For the same compound, in [1] (5 mg kg^−1 i.p.), the “inhibition of edema formation from areas under the curves (2-6 h)” value is recorded as 52 % of control. Also, the “reduction of peak paw edema response at 4 h” value in [1] (5 mg kg^−1 i.p. 30 min before carrageenan) is given as 57%. The “ED50 paw edema formation” value in assay [1] was found to be 5 mg/kg. For the same compound, the “effect on 12-HHT formation” value in assay [14] is given as “almost completely blocked”. In addition, in assay [6] (setting [15]), the “attenuation of cell infiltration” value worked out at 65% and the “attenuation of exudate formation” value was 75%. In assay [6] (i.p. 30 min before, Hyperforin 4 mg kg^−1, Indomethacin 5 mg kg^−1, vehicle 0.44 ± 0.04), the Exudate volume was determined as 0.11 ± 0.04 mL. In addition, in [6] (setting [16]), the PGE2 in exudate amounted to 0.19 ± 0.05 ng/rat and the Inflammatory cells was 35.8 ± 4.2 ×10^6.

`CC(C)CCC[C@]1(C)[C@@H](CCC(C)C)C[C@@]2(CCC(C)C)C(=O)[C@]1(C(=O)C(C)C)C(=O)C(CCC(C)C)=C2O` [octahydro-hyperforin]: in [13] (20 μM PGH2), the “mPGES-1 inhibition compared with Hyp” value is “equally effective”.
